Where two headings read alike, the source gives them in different places. Each block holds one compound with its values, some of them ahead of it.
How the values were obtained:
ROCK2 = ROCK2 (Homo sapiens, UniProt O75116); experiment: ROCK2 inhibition; assay type: biochemical
[1] = system: patients with chronic GVHD; experiment: Study KD025-213 efficacy, belumosudil 200 mg daily cohort; assay type: in vivo, human; conditions: for Median time from first response to death or new systemic therapy: 49 responders; for Overall response rate (ORR) through Cycle 7 Day 1 (CR or PR): N=65, 2014 NIH consensus criteria, FDA adjudicated; for Patients with 7-point or greater decrease in Lee Symptom Scale summary score through Cycle 7 Day 1: N=65, exploratory; for Median duration of response: responders
[2] = Clinical pharmacokinetics of belumosudil; assay type: in vivo, human
[3] = Population pharmacokinetics; parameters: species or system human; conditions: in comparison to healthy volunteers
CYP3A4 = CYP3A4 (Homo sapiens, UniProt P08684); experiment: In vitro metabolism; assay type: in vitro ADME
Chain of CYP3A4 (P08684 whole entry): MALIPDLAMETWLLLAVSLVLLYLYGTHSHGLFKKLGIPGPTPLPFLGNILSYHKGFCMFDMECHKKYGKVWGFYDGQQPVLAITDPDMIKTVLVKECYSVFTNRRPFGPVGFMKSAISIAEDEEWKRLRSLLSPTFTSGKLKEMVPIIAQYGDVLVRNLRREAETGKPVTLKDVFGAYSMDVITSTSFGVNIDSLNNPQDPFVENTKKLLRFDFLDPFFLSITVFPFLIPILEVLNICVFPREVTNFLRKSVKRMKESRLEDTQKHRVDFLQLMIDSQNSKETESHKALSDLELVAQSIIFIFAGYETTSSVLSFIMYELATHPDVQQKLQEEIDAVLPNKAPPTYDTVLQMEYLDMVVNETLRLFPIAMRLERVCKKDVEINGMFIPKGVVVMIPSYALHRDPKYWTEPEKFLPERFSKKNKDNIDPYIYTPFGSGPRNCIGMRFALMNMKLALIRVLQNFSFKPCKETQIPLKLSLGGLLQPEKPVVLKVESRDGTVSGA

CYP2C8 = CYP2C8 (Homo sapiens, UniProt P10632); experiment: In vitro metabolism; assay type: in vitro ADME
Chain of CYP2C8 (P10632 whole entry): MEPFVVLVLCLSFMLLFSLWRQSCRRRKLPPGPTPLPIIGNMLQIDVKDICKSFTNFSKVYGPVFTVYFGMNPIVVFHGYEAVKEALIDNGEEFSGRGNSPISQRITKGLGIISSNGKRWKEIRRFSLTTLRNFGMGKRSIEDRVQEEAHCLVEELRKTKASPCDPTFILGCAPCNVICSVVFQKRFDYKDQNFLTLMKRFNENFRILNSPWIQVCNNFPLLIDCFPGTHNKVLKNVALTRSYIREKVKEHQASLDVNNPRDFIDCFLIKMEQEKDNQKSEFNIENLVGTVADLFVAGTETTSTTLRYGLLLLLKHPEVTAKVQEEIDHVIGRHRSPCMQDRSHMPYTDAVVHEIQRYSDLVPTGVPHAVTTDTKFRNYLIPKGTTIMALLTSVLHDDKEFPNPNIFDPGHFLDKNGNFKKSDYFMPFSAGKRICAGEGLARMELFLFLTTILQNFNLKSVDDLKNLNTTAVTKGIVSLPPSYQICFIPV

patients with cGVHD [4] = experiment: Study KD025-208 dose-escalation trial; assay type: in vivo, human; conditions: 200 mg daily, 200 mg twice daily and 400 mg daily; 54 patients failing 1-3 prior lines
patients with cGVHD [5] = experiment: Pooled exposure-response analyses; parameters: species or system human; conditions: 186 patients
UGT1A1 [6] = biological target: T1, UGT1A1 (Homo sapiens, UniProt P22309); experiment: UGT1A1 inhibition; assay type: in vitro ADME; conditions: at concentrations that could be achieved clinically
T1 sequence (P22309 26-533): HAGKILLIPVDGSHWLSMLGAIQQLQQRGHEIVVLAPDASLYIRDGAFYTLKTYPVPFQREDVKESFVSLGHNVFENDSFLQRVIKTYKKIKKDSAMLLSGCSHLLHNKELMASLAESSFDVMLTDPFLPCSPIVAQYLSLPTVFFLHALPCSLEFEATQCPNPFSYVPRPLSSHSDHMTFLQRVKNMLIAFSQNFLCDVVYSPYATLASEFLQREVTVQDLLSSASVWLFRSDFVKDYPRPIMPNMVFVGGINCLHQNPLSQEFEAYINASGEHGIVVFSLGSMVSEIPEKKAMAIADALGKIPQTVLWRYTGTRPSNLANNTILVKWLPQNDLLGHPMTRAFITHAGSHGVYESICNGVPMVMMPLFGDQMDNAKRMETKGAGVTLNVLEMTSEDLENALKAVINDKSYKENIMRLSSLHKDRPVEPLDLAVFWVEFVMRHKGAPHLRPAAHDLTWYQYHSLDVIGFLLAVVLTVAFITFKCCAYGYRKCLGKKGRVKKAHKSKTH

Photoabsorbance in vitro = assay type: physicochemical
Tissue distribution = conditions: in vivo
[7] = biological target: human ether-à-go-go-related gene (hERG) current (Homo sapiens, UniProt Q12809); experiment: hERG current in vitro; assay type: biochemical
Chain of human ether-à-go-go-related gene (hERG) current (Q12809 whole entry): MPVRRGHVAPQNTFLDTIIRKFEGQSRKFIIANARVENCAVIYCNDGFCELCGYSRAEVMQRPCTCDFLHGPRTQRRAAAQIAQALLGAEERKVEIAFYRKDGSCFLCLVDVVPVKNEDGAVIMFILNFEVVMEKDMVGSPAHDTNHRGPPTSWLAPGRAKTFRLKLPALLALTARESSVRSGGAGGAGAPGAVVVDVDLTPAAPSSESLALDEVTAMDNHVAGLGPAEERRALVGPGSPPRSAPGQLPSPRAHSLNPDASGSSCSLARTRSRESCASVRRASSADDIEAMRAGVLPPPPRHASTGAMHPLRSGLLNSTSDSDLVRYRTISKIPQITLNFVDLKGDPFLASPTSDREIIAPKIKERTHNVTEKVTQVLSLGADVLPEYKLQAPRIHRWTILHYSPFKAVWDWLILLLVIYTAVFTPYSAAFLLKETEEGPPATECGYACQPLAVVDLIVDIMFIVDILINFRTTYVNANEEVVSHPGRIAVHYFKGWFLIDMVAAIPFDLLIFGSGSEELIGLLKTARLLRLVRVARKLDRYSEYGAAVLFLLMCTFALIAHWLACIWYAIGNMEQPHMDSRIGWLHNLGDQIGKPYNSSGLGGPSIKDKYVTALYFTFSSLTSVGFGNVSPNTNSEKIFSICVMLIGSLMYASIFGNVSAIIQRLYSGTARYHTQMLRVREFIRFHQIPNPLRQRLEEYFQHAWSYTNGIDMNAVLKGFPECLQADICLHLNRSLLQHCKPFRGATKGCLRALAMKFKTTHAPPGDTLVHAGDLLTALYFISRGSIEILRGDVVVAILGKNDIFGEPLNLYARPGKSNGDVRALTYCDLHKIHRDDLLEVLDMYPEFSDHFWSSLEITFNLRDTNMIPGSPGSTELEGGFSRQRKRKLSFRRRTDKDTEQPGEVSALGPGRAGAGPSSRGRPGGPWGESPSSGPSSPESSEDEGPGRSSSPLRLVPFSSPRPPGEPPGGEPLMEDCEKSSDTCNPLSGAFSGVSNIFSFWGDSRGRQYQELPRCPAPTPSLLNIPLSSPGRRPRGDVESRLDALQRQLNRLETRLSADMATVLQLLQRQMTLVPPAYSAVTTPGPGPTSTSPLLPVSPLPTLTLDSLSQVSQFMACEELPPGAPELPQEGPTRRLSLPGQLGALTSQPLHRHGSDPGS

animals = experiment: Animal toxicology studies; assay type: in vivo
dogs = experiment: Safety pharmacology studies in dogs; assay type: in vivo, dog
[8] = Reproductive toxicity studies; conditions: in vivo
[9] = system: adult patients with cGVHD; experiment: Clinical safety, Studies KD025-208 and KD025-213, belumosudil 200 mg daily; assay type: in vivo, human
[10] = cited from earlier work
ROCK1 isoform = conditions: in vitro, compared with ROCK2; cited from earlier work
mTOR pathway = conditions: in vitro; cited from earlier work
[11] = system: human peripheral blood mononuclear cells; conditions: CD3-CD28 stimulation of human PBMC, ex-vivo or in vitro; cited from earlier work
STAT3 = conditions: ex-vivo or in vitro; cited from earlier work
MRTF = conditions: ex-vivo or in vitro; cited from earlier work
cGVHD mouse models = conditions: cited from earlier work
UGT1A1 [12] = biological target: T1, UGT1A1; conditions: cited from earlier work
p-glycoprotein = conditions: cited from earlier work
BCRP = conditions: cited from earlier work
OATP1B1 = conditions: cited from earlier work
CYP1A2 = conditions: cited from earlier work
CYP2C19 = conditions: cited from earlier work
CYP2D6 = CYP2D6 (Homo sapiens, UniProt P10635); conditions: cited from earlier work
Chain of CYP2D6 (P10635 whole entry): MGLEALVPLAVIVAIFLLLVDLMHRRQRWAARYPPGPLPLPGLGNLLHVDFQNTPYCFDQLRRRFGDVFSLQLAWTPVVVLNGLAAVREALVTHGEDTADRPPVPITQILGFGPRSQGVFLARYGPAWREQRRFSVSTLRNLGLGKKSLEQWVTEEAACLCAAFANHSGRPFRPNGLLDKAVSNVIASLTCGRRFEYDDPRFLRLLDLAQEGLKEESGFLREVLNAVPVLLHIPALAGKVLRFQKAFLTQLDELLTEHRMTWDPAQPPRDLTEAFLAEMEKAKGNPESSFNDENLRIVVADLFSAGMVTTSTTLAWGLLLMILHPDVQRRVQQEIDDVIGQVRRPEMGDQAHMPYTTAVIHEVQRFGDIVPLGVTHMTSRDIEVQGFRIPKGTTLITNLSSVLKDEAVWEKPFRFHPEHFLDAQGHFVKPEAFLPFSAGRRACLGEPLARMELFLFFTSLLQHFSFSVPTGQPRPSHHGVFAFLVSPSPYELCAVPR

CYP3A = conditions: cited from earlier work
[13] = N=65, through Cycle 7 Day 1, listed as belumosudil
[14] = with proton pump inhibitor rabeprazole
[15] = with strong CYP3A inducer rifampicin

Chain of ROCK2 (O75116 whole entry): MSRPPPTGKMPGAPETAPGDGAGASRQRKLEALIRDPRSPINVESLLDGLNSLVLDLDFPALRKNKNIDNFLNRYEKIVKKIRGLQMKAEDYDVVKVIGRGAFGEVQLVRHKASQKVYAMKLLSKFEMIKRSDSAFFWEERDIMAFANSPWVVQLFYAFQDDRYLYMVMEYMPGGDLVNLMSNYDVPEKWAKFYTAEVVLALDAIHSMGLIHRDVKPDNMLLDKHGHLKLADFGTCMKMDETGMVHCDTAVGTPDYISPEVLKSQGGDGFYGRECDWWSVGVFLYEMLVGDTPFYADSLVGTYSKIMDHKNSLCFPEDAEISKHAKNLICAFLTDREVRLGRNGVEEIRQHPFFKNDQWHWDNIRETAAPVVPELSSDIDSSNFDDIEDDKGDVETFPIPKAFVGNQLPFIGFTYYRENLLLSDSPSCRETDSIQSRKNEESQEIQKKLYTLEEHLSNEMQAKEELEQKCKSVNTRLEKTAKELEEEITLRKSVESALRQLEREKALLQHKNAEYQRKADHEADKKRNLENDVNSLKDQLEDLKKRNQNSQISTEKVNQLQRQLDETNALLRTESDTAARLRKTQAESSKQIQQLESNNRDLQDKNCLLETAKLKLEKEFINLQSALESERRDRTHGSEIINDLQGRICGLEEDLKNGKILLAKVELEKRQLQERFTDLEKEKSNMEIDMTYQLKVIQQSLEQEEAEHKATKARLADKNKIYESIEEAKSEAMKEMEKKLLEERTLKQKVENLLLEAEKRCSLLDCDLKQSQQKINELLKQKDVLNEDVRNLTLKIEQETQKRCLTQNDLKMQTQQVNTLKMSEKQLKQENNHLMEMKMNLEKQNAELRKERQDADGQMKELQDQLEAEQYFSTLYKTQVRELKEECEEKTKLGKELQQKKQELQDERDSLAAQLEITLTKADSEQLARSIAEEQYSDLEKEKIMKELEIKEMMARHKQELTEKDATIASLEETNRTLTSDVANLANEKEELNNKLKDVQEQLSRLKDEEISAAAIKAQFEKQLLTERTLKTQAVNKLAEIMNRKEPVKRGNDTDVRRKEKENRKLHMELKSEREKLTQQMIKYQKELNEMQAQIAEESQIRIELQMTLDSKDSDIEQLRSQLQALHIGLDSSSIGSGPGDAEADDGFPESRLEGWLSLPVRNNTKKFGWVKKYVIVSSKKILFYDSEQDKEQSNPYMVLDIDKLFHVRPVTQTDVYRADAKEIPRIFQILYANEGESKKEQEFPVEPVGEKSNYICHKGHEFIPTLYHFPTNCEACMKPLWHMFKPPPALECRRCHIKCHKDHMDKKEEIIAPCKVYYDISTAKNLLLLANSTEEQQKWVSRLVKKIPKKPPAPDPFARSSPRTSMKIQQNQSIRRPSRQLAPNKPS

ROCK2 inhibition (ROCK2): inhibit
SMILES: NC(=O)COc1cccc(-c2nc(Nc3ccc4[nH]ncc4c3)c3ccccc3n2)c1 [KD025m1]

ROCK2 inhibition (ROCK2): inhibit
SMILES: O=C(O)COc1cccc(-c2nc(Nc3ccc4[nH]ncc4c3)c3ccccc3n2)c1 [KD025m2]

SMILES: CC(C)NC(=O)COc1cccc(-c2nc(Nc3ccc4[nH]ncc4c3)c3ccccc3n2)c1 [Belumosudil]
Median time from first response to death or new systemic therapy [1]: Not estimable
Median time from first response to death or new systemic therapy ([1]; listed as belumosudil): not reached
Overall response rate (ORR) through Cycle 7 Day 1 (CR or PR) [1]: 49 (75%) (63% - 85%)
Overall response rate (ORR) through Cycle 7 Day 1 (CR or PR) ([1]; listed as belumosudil): 75%
Patients with 7-point or greater decrease in Lee Symptom Scale summary score through Cycle 7 Day 1 [1]: (52%) (40% - 65%)
Patients with 7-point or greater decrease in Lee Symptom Scale summary score through Cycle 7 Day 1 ([1]; listed as belumosudil): 52%
Complete Response (CR) ([1]; N=65, through Cycle 7 Day 1): 4 (6%)
Partial Response (PR) ([1]; N=65, through Cycle 7 Day 1): 45 (69%)
Complete Response (CR) [1, 13]: 6%
Partial Response (PR) [1, 13]: 69%
Median duration of response [1]: 1.9 months (1.2-2.9 months)
Median duration of response ([1]; listed as belumosudil): 1.9 months
Delay of Tmax with food ([2]; administration with food): 0.5 h
Increase of AUC with food ([2]; administration with food): 2 times
Increase of Cmax with food ([2]; administration with food): 2.2 times
Excretion in feces unchanged ([2]; human, in vivo): 30%
Tmax ([2]; human, in vivo, oral): 1.26 h
Effect of a diagnosis of GVHD on clearance [3]: decreased clearance
Metabolism by CYP3A4 (CYP3A4): metabolized primarily
Metabolism by CYP2C8 (CYP2C8): to a lesser extent
ROCK2 inhibition (ROCK2): inhibitor
Activity in cGVHD (patients with cGVHD [4]): appeared to be active
Relationship of response with exposure (patients with cGVHD [5]): no relationship
UGT1A1 inhibition (UGT1A1 [6]): inhibited
Photoabsorbance (Photoabsorbance in vitro): observed
Tissue distribution (Tissue distribution): distributed to photosensitive areas such as skin and uveal tract
hERG current [7]: blocked
Target organs of toxicity (animals): toxicities were observed in the gastrointestinal tract, liver, kidney, hemolymphoid system, and reproductive system
Effect on blood pressure (dogs): lowering of the blood pressure
Embryo-fetal toxicity [8]: embryo-fetal toxicity
Male fertility [8]: impaired male fertility
Incidence of Viral infection ([9]; Grades ≥ 3, 200 mg daily, n=83): 4%
Adverse reactions leading to dose interruption ([9]; human, in vivo): 29%
Dose interruption due to diarrhea ([9]; human, in vivo): 4%
Dose interruption due to infections ([9]; human, in vivo): 11%
Reduction of belumosudil Cmax [10, 14]: up to 87%
Reduction of belumosudil overall exposure [10, 14]: up to 80%
Reduction of belumosudil Cmax [10, 15]: approximately 60%
Reduction of belumosudil overall exposure [10, 15]: approximately 72%
ROCK1 isoform inhibition (ROCK1 isoform): with less potency
mTOR pathway inhibition (mTOR pathway): inhibited
Secretion of IL-21 and IL-17 [11]: inhibited
STAT3 phosphorylation and transcriptional activity (STAT3): inhibited
MRTF-mediated gene expression (MRTF): inhibited
cGVHD-related clinical and histological abnormality scores in the lung and skin (cGVHD mouse models): improvement
UGT1A1 inhibition (UGT1A1 [12]): inhibit
p-glycoprotein inhibition (p-glycoprotein): inhibit
BCRP inhibition (BCRP): inhibit
OATP1B1 inhibition (OATP1B1): inhibit
CYP1A2 inhibition (CYP1A2): inhibit
CYP2C19 inhibition (CYP2C19): inhibit
CYP2D6 inhibition (CYP2D6): inhibit
Effect on CYP3A (CYP3A): little effect

Source: paper PMC9197942 (Clinical cancer research : an official journal of the …, 2022)
